Legend:
NZM mice [1] = assay: Antibody secreting cell Elispot (anti-Smith, anti-dsDNA ASC), spleens of NZM mice (Example 3); assay type: in vivo, mouse
Procedure: (§1) FIG. 49 depicts the frequency of anti-Smith antibody secreting cells in the spleens of NZM mice. NZM treated mice spleens were processed for splenocytes for ex vivo Elispot assays. Elispot wells were coated with 10 μg/mL of purified smith antigen or ovalbumin protein as a third party background control antigen. Fresh, whole splenocytes were added to each well at 500,000 cells per well in cell culture medium. Cells were incubated overnight at 37° C. Developed wells provided spots that were counted as frequency of ASCs per million splenocytes.
as §1, with “50” for “49”, “anti-dsDNA” for “anti-Smith”, “bovine dsDNA” for “purified smith antigen”
B-cell Elispot components are ordered from MabTech (Nacka Strand, Sweden) and nitrocellulose IP filter plates are ordered from Millipore (Billerica, Mass.). Elispot wells are coated with either purified bovine thymus dsDNA (Sigma), purified bovine Smith antigen (GenWay) or boiled filtered purified chicken chromatin from lysed chicken red blood cells (Rockland, Gilbertsville, Pa.) at 10 μg/mL. Spleens are processed using glass homogenization (frosted slides). Dispersed cell contents are washed in sterile HBSS and RBCs lysed using 1×RBC lysis buffer (BioLegend, Cat #420301). Processed splenocytes are added to each well and are not stimulated with lipopolysaccharide (LPS) to avoid skewing of true ex vivo frequencies of antibody-secreting cell types (ASCs). Anti-mouse pan-IgG is used as a positive control for total IgG producing ASCs and is used to normalize results. Frequencies for each antigen are identified in an initial test phase for each model. For chromatin and total IgG only, 30,000 splenocytes are added to each well; for Smith antigen and dsDNA, 500,000 cells are added to each well. Different numbers of splenocytes are added for different antigens due to saturation limits of spot frequencies per well. B-cell Elispots are incubated overnight at 37° C. To develop each assay, secondary antibody is added to each well, incubated, washed and alkaline phosphatase strepavidin (Jackson ImmunoResearch, West Grove, Pa.) is used as the conjugate; substrate used is BCIP-NBT (MabTech, Cincinnati, Ohio). Plates are developed until spots are visible. All Elispot analyses are performed using an Immunospot C.T.L. scanner and Biospot software (Cellular Technology Ltd., Shaker Heights, Ohio). Results are shown as values from which media and cells only wells are subtracted. Some values are negative due to high background.

NZB/W F1 mice = conditions: lupus prone NZB/W F1 mice; cited from earlier work
MRL/lpr mice = conditions: 6 control animals, 5 on drug, p=0.03; cited from earlier work
[2] = in vivo; cited from earlier work
NZM mice [3] = assay: Survival, NZM mice, sc/ip dosing (Example 3); assay type: in vivo, mouse; conditions: Groups 1, 2, and 4
Procedure: FIG. 44 depicts survival of NZM mice across treatment groups for the study duration. NZM mice were treated as outlined in the legend. […] The overall percentage of surviving mice at the 91 day endpoint is listed in parentheses within the legend. * indicates p≦0.05.

NZM mice [4] = assay: Total urine protein (proteinuria), NZM mice (Example 3); assay type: in vivo, mouse; conditions: Groups 1, 2, 4, and 5
Procedure: FIG. 45 depicts total urine protein (proteinuria) in NZM mice. Urine collected from NZM mice was analyzed for total protein content using a rat urinalysis kit.
Urine samples are acid precipitated for total protein analysis. For urine sample preparation, urine samples are centrifuged at 10,000 rpm for 3 minutes using a tabletop micro-centrifuge. 1-50 μL of urine supernatant is added in duplicate. PBS is added to adjust the volume to 50 μL total. For the turbidity assay: 25 μL of 0.1 N HCl is added into blank columns and 250 μL of 3% sulfosalicyclic acid into the test columns. The microplate is incubated for 10 minutes at RT and plates are read using an ELISA reader with single beam at 450 nm. A standard protein solution is prepared from normal mouse sera and is used as a standard for mouse urinary protein assay by turbidity. Standard preparation is as follows: 0, 5, 10, 15, 20, 30, 40, and 50 μL of a 4 mg/mL mouse sera standard protein solution as provided in the kit are added in duplicate into two columns. PBS is added to individual wells to adjust the final volume to 50 μL. Samples for which enough urine remains are used for Uristix® leukouria analysis. For the Uristix® strip assay, strips are laid out and labeled. Twenty microliters of urine are placed onto each test strip square and incubated for at least 30 seconds before the result is recorded. […]

CC(C)C[C@H](NC(=O)[C@H](Cc1ccccc1)NC(=O)c1cnccn1)B(O)O [bortezomib, reference compound]
anti-dsDNA ASC decrease vs vehicle (NZM mice [1]; Group 7, ip): 64.7%
anti-smith ASC decrease vs vehicle (NZM mice [1]; Group 7, ip): 46.3%
anti-dsDNA ASC decrease vs vehicle (NZM mice [1]; Group 8, sc): 88.9%
anti-smith ASC decrease vs vehicle (NZM mice [1]; Group 8, sc): 82.4%
proteinuria (NZB/W F1 mice): significantly reduced proteinuria
renal pathology (NZB/W F1 mice): improved renal pathology
survival compared to vehicle (NZB/W F1 mice): markedly prolonged survival
survival (MRL/lpr mice): significantly improved survival
serious side effects [2]: polyneuropathy, thrombocytopenia and gastrointestinal complications

CC(C)C[C@H](NC(=O)[C@@H](NC(=O)c1cccc(-c2ccccc2)n1)[C@@H](C)O)B(O)O [COMPOUND A, [(1R)-1-[[(2S,3R)-3-hydroxy-2-[6-phenyl-pyridine-2-carbonyl)amino]-1-oxobutyl]amino]-3-methylbutylboronic acid]
survival relative to vehicle (NZM mice [3]): significantly increased survival
proteinuria compared to vehicle (Group 10) and bortezomib ip (Group 7) (NZM mice [4]): reduced proteinuria
anti-sdDNA ASC decrease vs vehicle (NZM mice [1]; Group 1 (regimen: Table 42)): 97.9%
anti-smith ASC decrease vs vehicle (NZM mice [1]; Group 1 (regimen: Table 42)): 98.7%
anti-sdDNA ASC decrease vs vehicle (NZM mice [1]; Group 2 (regimen: Table 42)): 96.4%
anti-smith ASC decrease vs vehicle (NZM mice [1]; Group 2 (regimen: Table 42)): 96.6%
anti-sdDNA ASC decrease vs vehicle (NZM mice [1]; Group 4 (regimen: Table 42)): 100.7%
anti-smith ASC decrease vs vehicle (NZM mice [1]; Group 4 (regimen: Table 42)): 98.6%
anti-sdDNA ASC decrease vs vehicle (NZM mice [1]; Group 5 (regimen: Table 42)): 95.9%
anti-smith ASC decrease vs vehicle (NZM mice [1]; Group 5 (regimen: Table 42)): 97.6%

Source: patent US9340559B2, “Proteasome inhibitor delanzomib for use in the treatment of lupus” (Cephalon, Inc., priority 2011, dated 2016)
